Literature values, collected in US7977452B2, “Janus dendrimers and dendrons” (Dendritic Nanotechnologies, Inc., priority 2005, dated 2011).

Assays:
Mouse [1] = test system: Mouse
Mouse [2] = test system: Mouse; remark: listed apart in the source
[3] = in vivo
[4] = Gd-chelate PAMAM dendrimer contrast agent

Compound | Effective dose (ED) (Mouse [1]) [mmol·kg] | LD50 (Mouse [2]) [mmol·kg] | Excretion [3] | Size [4] [nm]
CNC[C@H](O)[C@@H](O)[C@H](O)[C@H](O)CO.O=C([O-])CN1CCN(CC(=O)[O-])CCN(CC(=O)O)CCN(CC(=O)[O-])CC1.[Gd+3] [NMG-Gd-DOTA] | 0.1 | 11.2 |  | 
O=C([O-])CN1CCNCCN(CC(=O)[O-])CCN(CC(=O)[O-])CC1.[Gd+3] [Gd(III)-DO3A] | 0.1 | 7 |  | 
CNC[C@H](O)[C@@H](O)[C@H](O)[C@H](O)CO.CNC[C@H](O)[C@@H](O)[C@H](O)[C@H](O)CO.O=C([O-])CN(CCN(CC(=O)[O-])CC(=O)O)CCN(CC(=O)[O-])CC(=O)O.[Gd+3] [(NMG)2-Gd-DTPA] | 0.1 | 8.2 |  | 
CC(O)CN1CCN(CC(=O)[O-])CCN(CC(=O)[O-])CCN(CC(=O)[O-])CC1.[Gd+3] (stereo not drawn) [Gd-HP-DO3A] | 0.1 | 12.0 |  | 
CNC(=O)CN(CCN(CCN(CC(=O)[O-])CC(=O)NC)CC(=O)[O-])CC(=O)[O-].[Gd+3] [Gd-DTPA-BMA] | 0.1 | 34.4 |  | 
O=C(O)CN(CCN(CC(=O)O)CC(=O)O)CCN(CC(=O)O)CC(=O)O [DTPA, diethylenetriaminepentaacetic acid] |  |  | Kidney | 
O=C(O)CN(CCN(CC(=O)O)CC(=O)O)CCN(CC(=O)O)CC(=O)O (Gd complex, metal not drawn) [DTPA, diethylenetriaminepentaacetic acid] |  |  |  | >1
